Experimental data as given in ChEMBL document CHEMBL1201862, “PubChem BioAssay data set” (2004).
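Cultured in 96-well plates, cells were exposed to test compound for 48 hours across five concentrations. Here, GI50 denotes the concentration required for 50% inhibition of growth.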 Active and inactive are the calls of the source. Cut-off read from the data, not from the text of the source: active = GI50 up to about 1.1 µM and inactive = higher.

Legend:
Test in all cases: NCI tumour cell line growth inhibition, 48 h
LOX IMVI = tested on: LOX IMVI
M14 = tested on: M14
CAKI-1 = tested on: CAKI-1
IGROV-1 = tested on: IGROV-1
SK-OV-3 = tested on: SK-OV-3
UO-31 = tested on: UO-31
NCI-H226 = tested on: NCI-H226
SR = tested on: SR
A549 = tested on: A549
RPMI-8226 = tested on: RPMI-8226
SK-MEL-5 = tested on: SK-MEL-5
HT-29 = tested on: HT-29
HOP-62 = tested on: HOP-62
KM12 = tested on: KM12
SF-295 = tested on: SF-295
OVCAR-8 = tested on: OVCAR-8

Measured: GI50

Cc1cc(N)c2cc(NC(=O)CCCCCCCCC(=O)Nc3ccc4nc(C)cc(N)c4c3)ccc2n1
inactive: LOX IMVI 22.2 µM | M14 > 84.9 µM | CAKI-1 > 100 µM | IGROV-1 > 30.5 µM | SK-OV-3 > 68.4 µM | UO-31 > 100 µM | NCI-H226 2.43 µM | SR 11.7 µM | A549 6.35 µM | RPMI-8226 5.53 µM | SK-MEL-5 5.58 µM | HT-29 32.9 µM | HOP-62 > 61.9 µM | KM12 5.57 µM | SF-295 43.2 µM | OVCAR-8 > 100 µM

COc1c2c(cc3c1C(=O)Cc1ccc4c(c1CN(C)CC3)OCO4)OCO2
inactive: LOX IMVI > 100 µM | M14 74.3 µM | CAKI-1 79.3 µM | IGROV-1 18.5 µM | SK-OV-3 > 100 µM | UO-31 12.2 µM | NCI-H226 59.2 µM | SR 43.2 µM | A549 > 100 µM | RPMI-8226 85.3 µM | SK-MEL-5 40.3 µM | HT-29 29.4 µM | HOP-62 > 100 µM | KM12 > 100 µM | SF-295 > 100 µM | OVCAR-8 > 100 µM

CC12CCC(=O)N1c1ccc([N+](=O)[O-])cc1N2 (configuration not stated)
inactive: LOX IMVI > 100 µM | M14 > 100 µM | IGROV-1 > 100 µM | SK-OV-3 > 100 µM | UO-31 > 100 µM | NCI-H226 42.3 µM | SR 71 µM | A549 > 100 µM | RPMI-8226 > 100 µM | SK-MEL-5 > 100 µM | HT-29 > 100 µM | HOP-62 > 100 µM | KM12 > 100 µM | SF-295 > 100 µM | OVCAR-8 > 100 µM

O=[N+]([O-])C(=C(c1ccccc1)c1ccccc1)[N+](=O)[O-]
inactive: LOX IMVI 2.96 µM | M14 11.9 µM | CAKI-1 21.1 µM | IGROV-1 5.96 µM | UO-31 22.1 µM | NCI-H226 31.1 µM | SR 3.29 µM | A549 23.1 µM | RPMI-8226 2.45 µM | HT-29 > 10 µM | HOP-62 > 10 µM | KM12 15.5 µM | SF-295 13.5 µM | OVCAR-8 9.86 µM

COc1ccc2c(C(=O)O)cc3ccccc3c2c1OC
inactive: LOX IMVI 17.6 µM | M14 16.4 µM | SK-OV-3 38.5 µM | UO-31 17.2 µM | NCI-H226 24.4 µM | SR 30.5 µM | A549 30 µM | RPMI-8226 31 µM | HT-29 21.6 µM | HOP-62 69.3 µM | KM12 18.3 µM | SF-295 47 µM | OVCAR-8 22 µM

O=C(NCC#CCO)C(F)(F)F
inactive: LOX IMVI > 100 µM | M14 > 100 µM | CAKI-1 > 100 µM | IGROV-1 > 100 µM | SK-OV-3 97.5 µM | UO-31 > 100 µM | NCI-H226 > 100 µM | SR > 100 µM | A549 > 100 µM | SK-MEL-5 > 100 µM | HT-29 > 100 µM | HOP-62 > 100 µM | KM12 > 100 µM | SF-295 > 10 µM | OVCAR-8 > 100 µM

CC(=O)/C=C/c1ccc(C2CC(C)=Nc3c(ccc4c3C(=O)c3ccccc3C4=O)N2)cc1 (configuration not stated)
inactive: LOX IMVI 8.83 µM | M14 77.3 µM | CAKI-1 6.98 µM | IGROV-1 9.12 µM | SK-OV-3 15.9 µM | UO-31 4.88 µM | NCI-H226 32.2 µM | SR > 100 µM | A549 > 40.1 µM | RPMI-8226 > 52.4 µM | SK-MEL-5 86.5 µM | HT-29 > 100 µM | HOP-62 58.1 µM | KM12 3.37 µM | SF-295 > 100 µM | OVCAR-8 28.2 µM

CCC(C)CCOC(=O)c1ccc(/N=C\c2ccc(/C=N/c3ccc(C(=O)OCCC(C)CC)cc3)cc2)cc1 (configuration not stated)
inactive: LOX IMVI > 100 µM | M14 > 100 µM | CAKI-1 > 100 µM | IGROV-1 > 100 µM | SK-OV-3 > 100 µM | UO-31 41.1 µM | NCI-H226 > 100 µM | SR > 100 µM | A549 > 100 µM | RPMI-8226 > 100 µM | SK-MEL-5 > 100 µM | HT-29 > 100 µM | HOP-62 > 100 µM | SF-295 > 100 µM | OVCAR-8 > 100 µM

COc1ccc(-c2onc(-c3ccc([N+](=O)[O-])cc3)c2C2=NCCN2)cc1
inactive: LOX IMVI 79.6 µM | M14 > 100 µM | CAKI-1 > 100 µM | IGROV-1 > 100 µM | UO-31 29.6 µM | NCI-H226 95.1 µM | SR > 100 µM | A549 > 100 µM | RPMI-8226 > 100 µM | SK-MEL-5 83.6 µM | HT-29 33.3 µM | HOP-62 > 100 µM | KM12 > 100 µM | SF-295 35.2 µM | OVCAR-8 > 100 µM

COCOCc1cc(OCc2ccccc2)c(OC)cc1Br
inactive: LOX IMVI 52.8 µM | CAKI-1 64.3 µM | IGROV-1 > 100 µM | SR 63.1 µM | A549 > 100 µM | RPMI-8226 47 µM | SK-MEL-5 61.1 µM | HT-29 > 100 µM | HOP-62 > 100 µM | KM12 > 100 µM | SF-295 > 100 µM | OVCAR-8 > 100 µM
